# From patent publication EP2308847B1, “Substituted pyridines as inhibitors of dipeptidyl peptidase IV and their application for the treatment of diabetes and related diseases” (EMC microcollections GmbH, priority 2009, dated 2011)
# Target: T1, human recombinant DPP-IV (Homo sapiens, UniProt P27487)
# T1 construct: purchased Enzo Life Sciences AK499-0001
# Assay: biochemical
# Protocol: The potency of the tested compounds is described upon the degree in inhibition of DPP-IV cleavage of the chromogenic substrate Gly-Pro-pNA (pNA is p-nitroaniline), expressed as IC50 values.
# The assay was performed in 96-well plates at 37°C. First the enzyme was preincubated with the test compounds for 10 min. Therefore each well was filled with 0.18 mU of enzyme and variable concentrations of the inhibitor. Each well was filled up with Tris buffer (50 mM, pH 7.5) to a final volume of 200 µL. For dilutions of all test compounds DMSO was used.
# The assay was repeated 3 times for each test compound. IC50 values were calculated after plotting the data for up to eight inhibitor concentrations by mean.
# By measuring the rate of hydrolysis of Gly-Pro-pNA at four different concentrations of substrate and inhibitor the type of inhibition was determined. […] For each concentration of inhibitor the initial rates were used for Lineweaver-Burk plot.
# T1 sequence (P27487 whole entry): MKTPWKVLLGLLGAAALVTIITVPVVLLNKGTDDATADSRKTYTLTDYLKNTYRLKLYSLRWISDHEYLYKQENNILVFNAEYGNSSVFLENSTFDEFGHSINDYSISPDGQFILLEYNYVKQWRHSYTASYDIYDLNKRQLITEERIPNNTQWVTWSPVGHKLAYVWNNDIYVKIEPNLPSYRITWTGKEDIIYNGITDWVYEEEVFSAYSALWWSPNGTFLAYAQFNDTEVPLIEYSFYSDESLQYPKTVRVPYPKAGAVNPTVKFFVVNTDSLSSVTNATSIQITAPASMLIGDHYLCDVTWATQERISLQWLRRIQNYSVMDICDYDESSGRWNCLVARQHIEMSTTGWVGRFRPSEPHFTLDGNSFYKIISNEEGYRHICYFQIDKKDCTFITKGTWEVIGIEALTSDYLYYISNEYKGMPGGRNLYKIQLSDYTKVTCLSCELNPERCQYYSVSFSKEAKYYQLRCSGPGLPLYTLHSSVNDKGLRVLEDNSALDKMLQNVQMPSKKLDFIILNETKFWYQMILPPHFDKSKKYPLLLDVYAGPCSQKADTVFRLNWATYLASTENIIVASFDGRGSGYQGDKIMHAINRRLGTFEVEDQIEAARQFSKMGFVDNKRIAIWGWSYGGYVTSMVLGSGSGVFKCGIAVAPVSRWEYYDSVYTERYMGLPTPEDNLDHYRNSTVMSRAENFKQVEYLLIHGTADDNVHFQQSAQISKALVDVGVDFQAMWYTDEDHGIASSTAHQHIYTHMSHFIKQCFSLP
row,IC50 [µM],SMILES
1,< 10,Cc1nc(C(=O)O)cc(-c2ccc(F)cc2)c1CN [(XIII)]
2,< 10,Cc1nc(C(=O)O)cc(-c2ccccc2F)c1CN [(XIV)]
3,< 10,"Cc1nc(-c2ccc(Cl)cc2Cl)cc(C(=O)O)c1CN [regioisomer (XV), reference compound]"
